Laboratory results from the supplement of paper PMC8671470.

Legend:
Assay in all cases: cell viability (% survival relative to DMSO control, bortezomib = 0%); higher = less cytotoxic
Settings in all cases: 72 h
NOMO-1 = tested on: NOMO-1
In short: (§1)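 After 72 h at 37 °C with 5% CO2, cell viability in 384-well plates was measured by CellTiter-Glo luminescence. The plates held compounds pre-printed at 1, 10, 100, 1000 or 10000 nM in duplicate, and cells from 10 AML and 5 CML lines seeded at densities titrated to linear growth. Percent survival is the duplicate mean, normalised to vehicle as 100% and a 10 µM positive control as 0%.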

SHI-1 = tested on: SHI-1
In short: as §1

Mono-Mac-6 = tested on: Mono-Mac-6
In short: as §1

KU-812 = tested on: KU-812
In short: as §1

| SMILES | cell viability (NOMO-1; 1 nM) | cell viability (NOMO-1; 10 nM) | cell viability (NOMO-1; 100 nM) | cell viability (NOMO-1; 1000 nM) | cell viability (NOMO-1; 10000 nM) | cell viability (SHI-1; 1 nM) | cell viability (SHI-1; 10 nM) | cell viability (SHI-1; 100 nM) | cell viability (SHI-1; 1000 nM) | cell viability (SHI-1; 10000 nM) | cell viability (Mono-Mac-6; 1 nM) | cell viability (Mono-Mac-6; 10 nM) | cell viability (Mono-Mac-6; 100 nM) | cell viability (Mono-Mac-6; 1000 nM) | cell viability (Mono-Mac-6; 10000 nM) | cell viability (KU-812; 1 nM) | cell viability (KU-812; 10 nM) | cell viability (KU-812; 100 nM) | cell viability (KU-812; 1000 nM) | cell viability (KU-812; 10000 nM) |
| --- | --- | --- | --- | --- | --- | --- | --- | --- | --- | --- | --- | --- | --- | --- | --- | --- | --- | --- | --- | --- |
| CC(/C=C1\SC(=S)N(CC(=O)O)C1=O)=C\c1ccccc1 [Epalrestat] | 108% | 101% | 93.4% | 102% | 103% | 120% | 100% | 106% | 93.5% | 113% | 106% | 103% | 103% | 93.9% | 116% | 101% | 91.6% | 94.9% | 95.4% | 111% |
| CCOC(=O)[C@@]1(CCCCCCOc2ccc(Cl)cc2)CO1 [Etomoxir] | 99.5% | 101% | 104% | 92.1% | 102% | 107% | 108% | 110% | 105% | 104% | 93.5% | 94.4% | 92.9% | 95.7% | 96.3% | 91.3% | 110% | 93.5% | 82.7% | 60.8% |
| Cc1c(-c2ccccc2)oc2c(C(=O)OCCN3CCCCC3)cccc2c1=O.Cl [Flavoxate] | 93.8% | 105% | 99.3% | 97.1% | 99.6% | 94.8% | 99.6% | 97.6% | 98.4% | 101% | 92.6% | 105% | 101% | 96% | 94.6% | 92.2% | 110% | 111% | 99% | 99.2% |
| O=C(O)CCc1ccc(NCc2cccc(Oc3ccccc3)c2)cc1 [GW9508] | 92.8% | 96.6% | 108% | 108% | 104% | 102% | 99.4% | 120% | 97.8% | 107% | 101% | 104% | 108% | 110% | 104% | 89.2% | 92.4% | 101% | 98.8% | 99.3% |
| c1ccc2c(c1)OCC(=C1NCCN1)O2 [Idazoxan] | 98.9% | 104% | 94.4% | 92.2% | 89.3% | 105% | 103% | 89.8% | 101% | 95.1% | 102% | 106% | 91.1% | 89.1% | 102% | 105% | 108% | 96.5% | 91.8% | 105% |
| C[C@]12O[C@H](C[C@]1(O)CO)n1c3ccccc3c3c4c(c5c6ccccc6n2c5c31)CNC4=O [Lestaurtinib] | 100% | 92.3% | 68.1% | 9.73% | 0.0124% | 107% | 97.9% | 37.1% | 19.5% | 0.00197% | 83.4% | 54.1% | 4.06% | 0.62% | 0.201% | 96% | 89.8% | 39.4% | 43.1% | 6% |
| O=C(O)c1nn(Cc2ccc(Cl)cc2Cl)c2ccccc12 [Lonidamine] | 96.7% | 99.9% | 107% | 106% | 105% | 107% | 114% | 105% | 95.5% | 99.4% | 106% | 111% | 102% | 87.5% | 72.5% | 103% | 97% | 112% | 97% | 88.8% |
| C1CCc2nnc(C34CC5CC(CC(C5)C3)C4)n2CC1 [MERCK-544] | 102% | 95.8% | 89.3% | 97.4% | 109% | 90.2% | 110% | 104% | 90.2% | 118% | 95.9% | 100% | 93.3% | 97.7% | 96% | 97.6% | 95% | 86.9% | 78.7% | 97.9% |
| CC(Cc1ccc(O)c(O)c1)C(C)Cc1ccc(O)c(O)c1 (stereo not given) [Masoprocol] | 97% | 104% | 101% | 111% | 56.2% | 97.1% | 96.2% | 118% | 93.3% | 70.1% | 86.6% | 109% | 102% | 84.2% | 22.8% | 102% | 94.3% | 102% | 102% | 59.4% |
| CC(C(=O)O)C(=O)O [Methylmalonate] | 95.4% | 94.6% | 97.2% | 94% | 96.1% | 98.9% | 83.3% | 105% | 88.7% | 97% | 96.2% | 93% | 106% | 96.1% | 90.3% | 90.1% | 93.7% | 97% | 90.5% | 85.6% |
| COc1c(C)c2c(c(O)c1C/C=C(\C)CCC(=O)O)C(=O)OC2 [Mycophenolic acid] | 103% | 96.6% | 106% | 89.2% | 24.7% | 105% | 104% | 92% | 77.2% | 14.4% | 104% | 99.7% | 108% | 80% | 16.4% | 94.6% | 94.5% | 104% | 51.7% | 10.9% |
| C1CCC(C(CC2CCCCN2)C2CCCCC2)CC1.O=C(O)/C=C\C(=O)O (stereo not given) [Perhexiline] | 91.6% | 82.6% | 88.7% | 94.9% | 25.9% | 95% | 92% | 103% | 102% | 0.332% | 91.8% | 87.4% | 85.9% | 98.6% | 1.23% | 96.3% | 85.1% | 94.9% | 99% | 8.47% |
